Experimental data: US8436043B2 (Takeda Pharmaceutical Company Limited, priority 2008, dated 2013)

molecular target: T1, human glucagon receptor (Homo sapiens, UniProt P47871); experiment: Glucagon binding inhibitory activity ([125I]-glucagon binding to glucagon receptor membrane protein); conditions: test compound 10 μM; 0.4% DMSO = 0%, non-labeled glucagon 1 μM = 100%
T1 construct: made in house; host or cells: FreeStyle CHO cells, transient transfection with pMSRαneo/hGCGR; membrane fraction (35,000 rpm pellet)
T1 sequence (P47871 26-477): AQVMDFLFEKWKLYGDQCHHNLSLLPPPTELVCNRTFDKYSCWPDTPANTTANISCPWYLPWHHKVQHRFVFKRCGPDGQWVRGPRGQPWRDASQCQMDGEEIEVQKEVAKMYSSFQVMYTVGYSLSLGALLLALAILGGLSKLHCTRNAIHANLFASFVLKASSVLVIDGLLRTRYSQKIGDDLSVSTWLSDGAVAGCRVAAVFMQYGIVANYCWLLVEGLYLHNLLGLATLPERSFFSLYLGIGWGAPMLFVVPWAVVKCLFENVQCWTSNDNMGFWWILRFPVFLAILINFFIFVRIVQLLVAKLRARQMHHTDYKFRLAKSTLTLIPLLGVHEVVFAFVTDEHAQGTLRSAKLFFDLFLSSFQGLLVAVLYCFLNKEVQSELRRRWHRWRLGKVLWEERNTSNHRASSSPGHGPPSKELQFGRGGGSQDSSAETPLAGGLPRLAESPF
Method in brief: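 Receptor source was a membrane fraction of transiently transfected CHO cells bearing human receptor; 90 min room-temperature binding, filtration harvest, scintillation counting.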

inhibitory rate (%) at 10 μM | Compound
89% | Cc1c(C(Nc2ccc(C(=O)N(C)CCC(=O)O)cc2)C2CCCC2)oc2ccc(F)cc12 (centres unmarked) [Example A69]
89% | Cc1c(C(Nc2ccc(C(=O)N(C)CCC(=O)O)cc2)C(C)C)oc2ccc(OCc3ccccc3)cc12 (centres unmarked) [Example A86, 3-[{[4-({1-[5-(benzyloxy)-3-methyl-1-benzofuran-2-yl]-2-methylpropyl}amino)phenyl]carbonyl}(methyl)amino]propanoic acid]
85% | Cc1c(C(Nc2ccc(C(=O)N(C)CCC(=O)O)nc2)C2CCCCC2)sc2ccccc12 (centres unmarked) [Example A60, 3-{[(5-{[cyclohexyl(3-methyl-1-benzothiophen-2-yl)methyl]amino}pyridin-2-yl)carbonyl](methyl)amino}propanoic acid]

same assay, conditions: test compound 10 μM; 0.4% DMSO = 0%, non-labeled glucagon 1 μM = 100%; read-out: inhibitory rate (%) at 10 μM

Compound | inhibition at 10 µM
Cc1c(C(Nc2ccc(C(=O)N(C)CCC(=O)O)cc2)C2CCCCC2)oc2ccc(OCCCS(C)(=O)=O)cc12 (centres unmarked) [Example A152, 3-[({4-[(cyclohexyl{3-methyl-5-[3-(methylsulfonyl)propoxy]-1-benzofuran-2-yl}methyl)amino]phenyl}carbonyl)(methyl)amino]propanoic acid] | 76%
Cc1c(C(Nc2ccc(C(=O)N(C)CCC(=O)O)cc2)C2CCCCC2)oc2cc(F)ccc12 (centres unmarked) [Example A97] | 76%
Cc1c(C(Nc2ccc(C(=O)N(C)CCC(=O)O)cc2)C2CCCCC2)oc2ccc(Oc3ccc(C#N)cn3)cc12 (centres unmarked) [Example A202, 3-{[(4-{[{5-[(5-cyanopyridin-2-yl)oxy]-3-methyl-1-benzofuran-2-yl}(cyclohexyl)methyl]amino}phenyl)carbonyl](methyl)amino}-propanoic acid] | 86%
Cc1c(C(Nc2ccc(C(=O)N(C)CCC(=O)O)nc2)C2CCCCC2)oc2ccc(F)cc12 (centres unmarked) [Example A56, 3-{[(5-{[cyclohexyl(5-fluoro-3-methyl-1-benzofuran-2-yl)methyl]amino}pyridin-2-yl)carbonyl](methyl)amino}propanoic acid] | 76%
Cc1nn(-c2ccc(OC(F)(F)F)cc2)cc1C(Nc1ccc(C(=O)NCCC(=O)O)cc1)C1CCCCC1 (centres unmarked) [Example 25, 3-[({4-[(cyclohexyl{3-methyl-1-[4-(trifluoromethoxy)phenyl]-1H-pyrazol-4-yl}methyl)amino]phenyl}carbonyl)amino]propanoic acid] | 78%
Cc1nn(-c2ccc(OC(F)(F)F)cc2)cc1C(Nc1ccc(C(=O)N(C)CCC(=O)O)cc1)C1CCCCC1 (centres unmarked) [Example 26, 3-[({4-[(cyclohexyl{3-methyl-1-[4-(trifluoromethoxy)phenyl]-1H-pyrazol-4-yl}methyl)amino]phenyl}carbonyl)(methyl)amino]propanoic acid] | 72%
COc1ccc2oc(C(Nc3ccc(C(=O)NCCC(=O)O)cc3)C3CCCCC3)c(C#N)c2c1 (centres unmarked) [Example A108, 3-{[(4-{[(3-cyano-5-methoxy-1-benzofuran-2-yl)(cyclohexyl)methyl]amino}phenyl)carbonyl]amino}propanoic acid] | 58%
COc1ccc2oc(C(Nc3ccc(C(=O)N(C)CCC(=O)O)cc3)C3CCCCC3)c(C)c2c1 (centres unmarked) [Example A27, 3-{[(4-{[cyclohexyl(5-methoxy-3-methyl-1-benzofuran-2-yl)methyl]amino}phenyl)carbonyl](methyl)amino}propanoic acid] | 80%
CCCCCCC(Nc1ccc(C(=O)N(C)CCC(=O)O)cc1)c1oc2ccc(OC)cc2c1C (centres unmarked) [Example A119, 3-{[(4-{[1-(5-methoxy-3-methyl-1-benzofuran-2-yl)heptyl]amino}phenyl)carbonyl](methyl)amino}propanoic acid] | 70%
CCC(CC)C(Nc1ccc(C(=O)NCCC(=O)O)cc1)c1oc2ccc(OC)cc2c1C (centres unmarked) [Example A104, 3-{[(4-{[2-ethyl-1-(5-methoxy-3-methyl-1-benzofuran-2-yl)butyl]amino}phenyl)carbonyl]amino}propanoic acid] | 68%
Cc1c(C(COc2ccccc2)Nc2ccc(C(=O)NCCC(=O)O)cc2)oc2ccccc12 (centres unmarked) [Example A94, 3-{[(4-{[1-(3-methyl-1-benzofuran-2-yl)-2-phenoxyethyl]amino}phenyl)carbonyl]amino}propanoic acid] | 57%
Cc1c(C(Nc2ccc(C(=O)NCCC(=O)O)cc2)C2CCCC2)sc2ccccc12 (centres unmarked) [Example A63, 3-{[(4-{[cyclopentyl(3-methyl-1-benzothiophen-2-yl)methyl]amino}phenyl)carbonyl]amino}propanoic acid] | 90%
Cc1c(C(CC(C)C)Nc2ccc(C(=O)NCCC(=O)O)cn2)sc2ccccc12 (centres unmarked) [Example A36, 3-{[(6-{[3-methyl-1-(3-methyl-1-benzothiophen-2-yl)butyl]amino}pyridin-3-yl)carbonyl]amino}propanoic acid] | 73%

Continued, values first:

inhibition at 10 µM | Compound
66% | COCc1c(C(Nc2ccc(C(=O)N(C)CCC(=O)O)cc2)C2CCCCC2)oc2ccc(F)cc12 (centres unmarked) [Example A48, 3-[{[4-({cyclohexyl[5-fluoro-3-(methoxymethyl)-1-benzofuran-2-yl]methyl}amino)phenyl]carbonyl}(methyl)amino]propanoic acid]
53% | CCNC(=O)Nc1ccc2oc(C(Nc3ccc(C(=O)N(C)CCC(=O)O)cc3)C3CCCCC3)c(C)c2c1 (centres unmarked) [Example A115, 3-[({4-[(cyclohexyl{5-[(ethylcarbamoyl)amino]-3-methyl-1-benzofuran-2-yl}methyl)amino]phenyl}carbonyl)(methyl)amino]propanoic acid]
94% | CSCCOc1ccc2oc(C(Nc3ccc(C(=O)NCCC(=O)O)cc3)C3CCCCC3)c(C)c2c1 (centres unmarked) [Example A148, 3-[({4-[(cyclohexyl{3-methyl-5-[2-(methylthio)ethoxy]-1-benzofuran-2-yl}methyl)amino]phenyl}carbonyl)amino]propanoic acid]
73% | O=C(O)CCNC(=O)c1ccc(NC(c2cn(-c3ccc(C(F)(F)F)cn3)nc2CCc2ccccc2)C2CCCCC2)cc1 (centres unmarked) [Example 11, 3-[({4-[(cyclohexyl{3-(2-phenylethyl)-1-[5-(trifluoromethyl)pyridin-2-yl]-1H-pyrazol-4-yl}methyl)amino]phenyl}carbonyl)amino]propanoic acid]
68% | COCc1nn(-c2cccc(OC)c2)cc1C(Nc1ccc(C(=O)N(C)CCC(=O)O)cc1)C1CCCCC1 (centres unmarked) [Example 76]
80% | Cc1c(C(Nc2ccc(C(=O)NCCC(=O)O)cc2)C(C)C)oc2ccc(F)cc12 (centres unmarked) [Example A193, 3-{[(4-{[1-(5-fluoro-3-methyl-1-benzofuran-2-yl)-2-methylpropyl]amino}phenyl)carbonyl]amino}propanoic acid]
76% | CCn1nc(-c2ccc(C(F)(F)F)cc2)cc1C(Nc1ccc(C(=O)NCCC(=O)O)cc1)C1CCCCC1 (centres unmarked) [Example 56, 3-[({4-[(cyclohexyl{1-ethyl-3-[4-(trifluoromethyl)phenyl]-1H-pyrazol-5-yl}methyl)amino]phenyl}carbonyl)amino]propanoic acid]
70% | CCCCCCC(Nc1ccc(C(=O)NCCC(=O)O)cc1)c1oc2ccc(OC)cc2c1C (centres unmarked) [Example A118, 3-{[(4-{[1-(5-methoxy-3-methyl-1-benzofuran-2-yl)heptyl]amino}phenyl)carbonyl]amino}propanoic acid]
75% | CCc1c(C(CC(C)C)Nc2ccc(C(=O)NCCC(=O)O)cc2)oc2ccccc12 (centres unmarked) [Example A34, 3-{[(4-{[1-(3-ethyl-1-benzofuran-2-yl)-3-methylbutyl]amino}phenyl)carbonyl]amino}propanoic acid]
69% | COCc1nn(-c2ccc(OC)cc2)cc1C(Nc1ccc(C(=O)N(C)CCC(=O)O)cc1)C1CCCCC1 (centres unmarked) [Example 36, 3-[{[4-({cyclohexyl[3-(methoxymethyl)-1-(4-methoxyphenyl)-1H-pyrazol-4-yl]methyl}amino)phenyl]carbonyl}(methyl)amino]propanoic acid]
72% | CN(CCC(=O)O)C(=O)c1ccc(NC(c2cn(-c3ccccc3)nc2OCc2ccccc2)C2CCCCC2)cc1 (centres unmarked) [Example 67, 3-[{[4-({[3-(benzyloxy)-1-phenyl-1H-pyrazol-4-yl](cyclohexyl)methyl}amino)phenyl]carbonyl}(methyl)amino]-propanoic acid]
75% | COCc1nn(-c2ccc(OC(F)(F)F)cc2)cc1C(Nc1ccc(C(=O)NCCC(=O)O)cc1)C1CCCCC1 (centres unmarked) [Example 33, 3-[({4-[(cyclohexyl{3-(methoxymethyl)-1-[4-(trifluoromethoxy)phenyl]-1H-pyrazol-4-yl}methyl)amino]phenyl}carbonyl)amino]propanoic acid]
76% | Cc1c(C(CC(C)C)Nc2ccc(C(=O)N(C)CCC(=O)O)cc2)oc2ccc(Cl)cc12 (centres unmarked) [Example A101, 3-{[(4-{[1-(5-chloro-3-methyl-1-benzofuran-2-yl)-3-methylbutyl]amino}phenyl)carbonyl](methyl)amino}propanoic acid]
84% | Cc1c(C(Nc2ccc(C(=O)N(C)CCC(=O)O)cc2)C2CCCC2)sc2ccccc12 (centres unmarked) [Example A64, 3-{[(4-{[cyclopentyl(3-methyl-1-benzothiophen-2-yl)methyl]amino}phenyl)carbonyl](methyl)amino}propanoic acid]
86% | CCCCCCC(Nc1ccc(C(=O)N(C)CCC(=O)O)cc1)c1cc2cc(Cl)ccc2n1C (centres unmarked) [Example A141, 3-{[(4-{[1-(5-chloro-1-methyl-1H-indol-2-yl)heptyl]amino}phenyl)carbonyl](methyl)amino}propanoic acid]
69% | CCn1nc(-c2ccc(OC(F)(F)F)cc2)cc1C(Nc1ccc(C(=O)N(C)CCC(=O)O)cc1)C1CCCCC1 (centres unmarked) [Example 58, 3-[({4-[(cyclohexyl{1-ethyl-3-[4-(trifluoromethoxy)phenyl]-1H-pyrazol-5-yl}methyl)amino]phenyl}carbonyl)(methyl)amino]propanoic acid]
